# Article PMC7316994, “In Vitro Pharmacological Profile of a New Small Molecule Bradykinin B2 Receptor Antagonist” (Frontiers in Pharmacology, 2020)
# “Also recorded” adds a separate entry of the source.
# What was measured:
# [1] = molecular target: T1, endogenous human B2 receptor (Homo sapiens, UniProt P30411); assay: human isolated umbilical vein contractility assay, BK-induced contraction
# T1 construct: BK-induced contraction at endogenous human B2 receptor in the umbilical vein model; from tissue; host or cells: human umbilical vein rings (donor cords after elective caesarean section)
# T1 sequence (P30411 1-391): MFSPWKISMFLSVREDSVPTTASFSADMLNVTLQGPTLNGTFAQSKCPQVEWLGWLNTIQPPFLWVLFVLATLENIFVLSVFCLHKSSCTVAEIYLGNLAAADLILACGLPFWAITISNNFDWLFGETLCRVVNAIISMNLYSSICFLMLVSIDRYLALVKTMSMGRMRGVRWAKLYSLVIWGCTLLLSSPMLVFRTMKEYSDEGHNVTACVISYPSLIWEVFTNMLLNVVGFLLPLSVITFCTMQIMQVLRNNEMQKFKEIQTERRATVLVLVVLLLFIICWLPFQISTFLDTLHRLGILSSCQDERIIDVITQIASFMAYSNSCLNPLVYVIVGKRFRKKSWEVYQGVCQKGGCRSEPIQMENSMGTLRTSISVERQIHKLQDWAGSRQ
# prostanoid TP receptor = molecular target: T2, prostanoid TP receptor (Homo sapiens, UniProt P21731); assay: umbilical vein, U-46619-induced contraction; conditions: Compound 2 10 μM; Compound 3 1 μM
# T2 construct: endogenous human prostanoid TP receptors in the umbilical vein model; from tissue; host or cells: human umbilical vein rings
# Source text: The local ethics committee (CHU de Québec-Université Laval) had approved the project (File no. 2017-3720). Umbilical cords were obtained following elective caesarean sections; all problematic deliveries are excluded. Informed consent was obtained from the mothers. The cords were transported from the maternity ward to the laboratory in sterile Hank's balanced salt solution containing penicillin and streptomycin. Segments of umbilical veins were dissected carefully from the cords and a metal rod was inserted in the lumen. Excess connective tissue was excised and rings (2–3 mm wide) were cut. Rings of umbilical veins were suspended in 5-mL organ chambers containing oxygenated (95% O2, 5% CO2) and warmed (37°C) Krebs' solution between a metal hook and a thread loop. This solution had the following composition: NaCl 117.5 mM, KCl 4.7 mM, KH2PO4 1.2 mM, MgSO4 1.18 mM, CaCI2 2.5 mM, NaHCO3 25.0 mM, and D-glucose 5.5 mM. A baseline of one gram-weight was applied to these preparations. Changes of tension were recorded by using isometric transducers (model 52-9545, Harvard Bioscience, South Natick MA). Eight tissue baths are operated in parallel.
# For this purpose, contractile responses to serotonin, acting on the 5-HT2A receptor, and U-46619, acting at the prostanoid TP receptor, were measured ([Rogines-Velo et al., 2002]; [Daray et al., 2003]).
# [2] = molecular target: Cholecystokinin CCK2 (CCKB) (Homo sapiens, UniProt P32239); assay: radioligand binding (Table S2); conditions: [125I] CCK-8, Human recombinant Chem-1 cells
# [3] = molecular target: T3, Cysteinyl leukotriene receptor CysLT2 (Homo sapiens, UniProt Q9NS75); assay: radioligand binding (Table S2); conditions: [3H] LTD4, Human recombinant HEK-293 cells
# T3 construct: host or cells: HEK-293 cells
# Galanin GAL2 = molecular target: T4, Galanin GAL2 (Homo sapiens, UniProt O43603); assay: radioligand binding (Table S2); conditions: [125I] Galanin, Human recombinant CHO cells
# T4 construct: host or cells: CHO cells
# [4] = molecular target: T5, Glutamate, metabotropic, mGlu5 (Homo sapiens, UniProt P41594); assay: radioligand binding (Table S2); conditions: [3H] Quisqualic acid, Human recombinant CHO-K1 cells
# T5 construct: host or cells: CHO-K1 cells
# [5] = molecular target: T6, Gonadotropin-releasing hormone (Homo sapiens, UniProt P30968); assay: radioligand binding (Table S2); conditions: [125I] [D-Trp6]-LH-RH, Human recombinant Chem-1 cells
# T6 construct: host or cells: Chem-1 cells
# Histamine H2 = molecular target: T7, Histamine H2 (Homo sapiens, UniProt P25021); assay: radioligand binding (Table S2); conditions: [125I] APT, Human recombinant CHO cells
# T7 construct: host or cells: CHO cells
# [6] = molecular target: T8, Melanin-concentrating hormone receptor MCH1 (Homo sapiens, UniProt Q99705); assay: radioligand binding (Table S2); conditions: [125I] [Phe13, Tyr19]-MCH, Human recombinant CHO cells
# T8 construct: host or cells: CHO cells
# Neuropeptide Y2 = molecular target: T9, Neuropeptide Y2 (Homo sapiens, UniProt P49146); assay: radioligand binding (Table S2); conditions: [125I] Peptide YY, KAN-TYS cells
# T9 construct: KAN-TYS cells; host or cells: KAN-TYS cells
# [7] = molecular target: T10, Platelet-activating factor PAF (Homo sapiens, UniProt P25105); assay: radioligand binding (Table S2); conditions: [3H] C16-PAF, Human recombinant CHO cells
# T10 construct: host or cells: CHO cells
# Prostanoid EP4 = molecular target: T11, Prostanoid EP4 (Homo sapiens, UniProt P35408); assay: radioligand binding (Table S2); conditions: [3H] Prostaglandin E2, Human recombinant Chem-1 cells
# T11 construct: host or cells: Chem-1 cells
# Lck kinase = Lck kinase (Homo sapiens, UniProt P06239); assay: enzyme assay (Table S2); format: biochemical; conditions: ATP + Ulight-PolyGAT (25 nM), LANCE
# Caco-2 cell monolayer = conditions: human, Caco-2, 60 min, 10 µM
# Adenosine A3 = molecular target: T12, Adenosine A3 (Homo sapiens, UniProt P0DMS8); assay: functional assay, cAMP HTRF, CHO cells (Table S2); format: cell-based; set-up: host or cells: CHO cells
# T12 sequence (P0DMS8 1-318): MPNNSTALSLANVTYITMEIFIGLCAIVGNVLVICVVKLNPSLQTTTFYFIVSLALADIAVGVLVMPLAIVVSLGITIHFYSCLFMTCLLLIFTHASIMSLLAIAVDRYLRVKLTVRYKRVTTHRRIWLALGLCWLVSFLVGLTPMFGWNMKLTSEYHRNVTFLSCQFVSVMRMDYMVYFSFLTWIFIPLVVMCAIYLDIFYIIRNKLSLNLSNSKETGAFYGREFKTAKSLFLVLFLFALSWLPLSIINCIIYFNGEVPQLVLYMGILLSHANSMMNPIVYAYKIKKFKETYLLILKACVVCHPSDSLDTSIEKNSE
# Adrenergic β2 = Adrenergic β2 (Homo sapiens, UniProt P07550); assay: radioligand binding (Table S2); conditions: read-out: % Inhibition @ 10 µM
# Muscarinic M1 = Muscarinic M1 (Homo sapiens, UniProt P11229); assay: radioligand binding (Table S2); conditions: read-out: % Inhibition @ 10 µM
# Muscarinic M1, sequence (P11229 whole entry): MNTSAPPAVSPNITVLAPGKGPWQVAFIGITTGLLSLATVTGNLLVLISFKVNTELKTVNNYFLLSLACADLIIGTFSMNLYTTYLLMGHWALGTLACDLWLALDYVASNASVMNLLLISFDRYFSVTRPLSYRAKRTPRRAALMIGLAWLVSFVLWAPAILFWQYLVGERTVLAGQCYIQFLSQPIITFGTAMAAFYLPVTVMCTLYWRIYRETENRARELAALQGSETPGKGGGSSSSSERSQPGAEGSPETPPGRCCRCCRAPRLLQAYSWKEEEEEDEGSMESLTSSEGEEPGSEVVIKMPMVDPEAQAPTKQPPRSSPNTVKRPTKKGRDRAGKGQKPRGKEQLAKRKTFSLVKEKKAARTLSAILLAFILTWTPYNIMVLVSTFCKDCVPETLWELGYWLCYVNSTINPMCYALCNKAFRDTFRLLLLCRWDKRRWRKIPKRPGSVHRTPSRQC
# T2 sequence (P21731 whole entry): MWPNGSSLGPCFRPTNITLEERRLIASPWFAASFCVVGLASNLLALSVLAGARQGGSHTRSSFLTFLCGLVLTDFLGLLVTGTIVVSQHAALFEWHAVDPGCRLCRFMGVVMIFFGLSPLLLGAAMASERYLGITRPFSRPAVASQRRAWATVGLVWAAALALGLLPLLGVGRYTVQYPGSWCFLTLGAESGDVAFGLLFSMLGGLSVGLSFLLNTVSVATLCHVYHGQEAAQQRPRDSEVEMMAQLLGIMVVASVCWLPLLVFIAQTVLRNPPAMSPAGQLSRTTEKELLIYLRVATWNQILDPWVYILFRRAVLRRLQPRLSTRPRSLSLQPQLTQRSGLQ
# T6 sequence (P30968 whole entry): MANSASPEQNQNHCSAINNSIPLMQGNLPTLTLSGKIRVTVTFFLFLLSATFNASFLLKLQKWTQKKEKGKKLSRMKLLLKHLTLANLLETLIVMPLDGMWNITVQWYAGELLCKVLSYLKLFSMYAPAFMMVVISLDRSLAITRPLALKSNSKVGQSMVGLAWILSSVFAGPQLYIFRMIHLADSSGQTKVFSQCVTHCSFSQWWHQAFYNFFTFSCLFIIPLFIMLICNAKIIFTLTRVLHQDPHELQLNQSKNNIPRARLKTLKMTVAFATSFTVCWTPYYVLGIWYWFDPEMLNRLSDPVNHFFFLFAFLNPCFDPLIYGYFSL
# T11 sequence (P35408 whole entry): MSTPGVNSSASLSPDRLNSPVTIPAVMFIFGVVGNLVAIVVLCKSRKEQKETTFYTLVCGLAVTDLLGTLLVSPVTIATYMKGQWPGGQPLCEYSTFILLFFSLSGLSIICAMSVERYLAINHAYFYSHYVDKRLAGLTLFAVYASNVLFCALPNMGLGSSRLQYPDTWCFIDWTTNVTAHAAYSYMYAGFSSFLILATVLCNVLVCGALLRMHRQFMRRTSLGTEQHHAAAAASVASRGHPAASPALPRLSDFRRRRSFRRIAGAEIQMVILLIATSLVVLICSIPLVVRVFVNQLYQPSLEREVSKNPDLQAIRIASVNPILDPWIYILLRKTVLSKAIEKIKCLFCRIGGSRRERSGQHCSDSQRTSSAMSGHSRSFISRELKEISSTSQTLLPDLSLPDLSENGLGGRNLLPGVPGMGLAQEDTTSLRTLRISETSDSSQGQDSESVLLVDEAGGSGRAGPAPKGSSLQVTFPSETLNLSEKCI
# T9 sequence (P49146 whole entry): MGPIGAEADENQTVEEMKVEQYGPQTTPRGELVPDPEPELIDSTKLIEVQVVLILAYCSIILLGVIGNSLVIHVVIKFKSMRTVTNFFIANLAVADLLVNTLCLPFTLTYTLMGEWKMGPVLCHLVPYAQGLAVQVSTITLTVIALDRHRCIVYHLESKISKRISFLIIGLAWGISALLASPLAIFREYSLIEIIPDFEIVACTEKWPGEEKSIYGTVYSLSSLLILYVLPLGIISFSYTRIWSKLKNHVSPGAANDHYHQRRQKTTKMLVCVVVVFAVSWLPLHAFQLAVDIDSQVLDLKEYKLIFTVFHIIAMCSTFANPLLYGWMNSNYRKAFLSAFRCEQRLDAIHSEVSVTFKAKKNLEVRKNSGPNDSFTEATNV
# T5 sequence (P41594 21-1212): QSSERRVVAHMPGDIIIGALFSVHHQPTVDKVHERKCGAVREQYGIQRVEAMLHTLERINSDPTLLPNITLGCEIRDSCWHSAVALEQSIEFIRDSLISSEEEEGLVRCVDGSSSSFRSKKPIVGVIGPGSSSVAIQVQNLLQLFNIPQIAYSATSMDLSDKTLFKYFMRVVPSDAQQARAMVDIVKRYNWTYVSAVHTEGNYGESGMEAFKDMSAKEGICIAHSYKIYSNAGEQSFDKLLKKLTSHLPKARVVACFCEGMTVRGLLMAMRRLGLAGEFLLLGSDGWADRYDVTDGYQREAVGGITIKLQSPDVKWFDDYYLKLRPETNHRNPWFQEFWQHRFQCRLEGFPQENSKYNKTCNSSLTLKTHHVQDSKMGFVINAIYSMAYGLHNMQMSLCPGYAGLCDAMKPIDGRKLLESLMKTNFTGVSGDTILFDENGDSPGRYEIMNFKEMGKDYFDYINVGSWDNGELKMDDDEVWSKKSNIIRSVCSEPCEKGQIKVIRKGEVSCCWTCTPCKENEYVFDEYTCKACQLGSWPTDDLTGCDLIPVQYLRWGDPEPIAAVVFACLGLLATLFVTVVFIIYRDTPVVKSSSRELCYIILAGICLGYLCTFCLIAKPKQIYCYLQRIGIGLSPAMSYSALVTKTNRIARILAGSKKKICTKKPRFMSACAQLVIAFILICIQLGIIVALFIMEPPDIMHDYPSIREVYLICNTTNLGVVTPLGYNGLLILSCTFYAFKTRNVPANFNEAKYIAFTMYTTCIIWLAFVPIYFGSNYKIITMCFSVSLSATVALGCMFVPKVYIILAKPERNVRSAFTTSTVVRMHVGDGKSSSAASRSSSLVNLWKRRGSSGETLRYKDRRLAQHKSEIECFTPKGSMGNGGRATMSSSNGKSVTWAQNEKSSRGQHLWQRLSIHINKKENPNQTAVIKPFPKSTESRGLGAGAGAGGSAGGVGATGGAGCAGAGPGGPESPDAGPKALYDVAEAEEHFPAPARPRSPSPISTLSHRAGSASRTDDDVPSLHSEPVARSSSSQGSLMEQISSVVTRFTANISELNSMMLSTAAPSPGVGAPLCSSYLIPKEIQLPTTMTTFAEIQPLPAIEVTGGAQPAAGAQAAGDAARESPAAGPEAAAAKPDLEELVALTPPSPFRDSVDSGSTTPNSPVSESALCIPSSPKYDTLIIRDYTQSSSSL
# T7 sequence (P25021 whole entry): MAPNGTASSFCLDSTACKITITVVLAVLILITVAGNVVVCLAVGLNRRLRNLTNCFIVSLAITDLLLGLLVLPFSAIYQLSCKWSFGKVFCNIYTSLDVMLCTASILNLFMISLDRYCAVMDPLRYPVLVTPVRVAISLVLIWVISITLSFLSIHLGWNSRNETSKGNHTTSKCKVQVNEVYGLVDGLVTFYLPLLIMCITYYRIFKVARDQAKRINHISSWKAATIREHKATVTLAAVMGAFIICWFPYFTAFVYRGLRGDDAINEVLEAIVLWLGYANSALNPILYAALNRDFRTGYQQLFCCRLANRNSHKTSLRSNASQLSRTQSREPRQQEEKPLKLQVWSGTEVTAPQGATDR
# T8 sequence (Q99705 whole entry): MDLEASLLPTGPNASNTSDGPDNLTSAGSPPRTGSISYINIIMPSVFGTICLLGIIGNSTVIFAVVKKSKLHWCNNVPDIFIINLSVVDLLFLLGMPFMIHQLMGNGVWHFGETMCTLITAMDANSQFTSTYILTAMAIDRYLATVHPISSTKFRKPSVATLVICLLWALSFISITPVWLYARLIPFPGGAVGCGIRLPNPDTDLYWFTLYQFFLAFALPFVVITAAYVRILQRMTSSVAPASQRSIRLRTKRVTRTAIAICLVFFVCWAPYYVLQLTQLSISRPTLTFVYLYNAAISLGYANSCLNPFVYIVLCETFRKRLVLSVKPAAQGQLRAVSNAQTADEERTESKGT
# Adrenergic β2, sequence (P07550 whole entry): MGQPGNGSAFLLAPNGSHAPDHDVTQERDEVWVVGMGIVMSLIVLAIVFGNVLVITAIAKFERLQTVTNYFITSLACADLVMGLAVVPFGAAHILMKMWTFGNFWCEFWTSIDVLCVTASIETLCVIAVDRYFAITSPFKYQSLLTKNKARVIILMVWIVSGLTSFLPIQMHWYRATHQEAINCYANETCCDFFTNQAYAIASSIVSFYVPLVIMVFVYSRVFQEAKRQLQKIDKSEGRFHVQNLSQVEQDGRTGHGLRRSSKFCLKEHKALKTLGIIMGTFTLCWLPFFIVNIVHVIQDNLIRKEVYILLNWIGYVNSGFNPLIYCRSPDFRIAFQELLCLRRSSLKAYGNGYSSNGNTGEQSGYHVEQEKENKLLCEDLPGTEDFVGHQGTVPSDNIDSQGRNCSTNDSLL
# Lck kinase, sequence (P06239 whole entry): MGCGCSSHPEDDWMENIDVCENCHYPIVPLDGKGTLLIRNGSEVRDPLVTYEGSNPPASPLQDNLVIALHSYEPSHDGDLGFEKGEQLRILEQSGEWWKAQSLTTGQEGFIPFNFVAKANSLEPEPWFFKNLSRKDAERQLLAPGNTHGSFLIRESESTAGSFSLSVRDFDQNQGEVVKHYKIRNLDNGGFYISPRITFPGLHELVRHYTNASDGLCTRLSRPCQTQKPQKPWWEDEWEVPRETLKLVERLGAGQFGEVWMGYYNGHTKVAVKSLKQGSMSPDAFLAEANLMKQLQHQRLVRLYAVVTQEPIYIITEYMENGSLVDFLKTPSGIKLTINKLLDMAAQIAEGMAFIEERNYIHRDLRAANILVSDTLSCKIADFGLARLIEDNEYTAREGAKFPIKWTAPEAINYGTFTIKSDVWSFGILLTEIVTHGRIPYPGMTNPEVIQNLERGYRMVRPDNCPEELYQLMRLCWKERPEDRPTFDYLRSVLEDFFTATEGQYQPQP
compound,measurement,setting,value
"Cc1cc(-c2ncnn2C)c2cccc(OCc3c(Cl)cc(F)cc3[C@H](C)NC(=O)COC(F)F)c2n1 [Compound 3, (S)-N-(1-(3-chloro-5-fluoro-2-((2-methyl-4-(1-methyl-1H-1,2,4-triazol-5-yl)quinolin-8-yloxy)methyl)phenyl)ethyl)-2-(difluoromethoxy)acetamide]",Kb,[1],0.214 nM
same,type of antagonism of BK,"[1]; BK concentration-effect curves, Emax",competitive
same,pA2,"[1]; Schild plot, Pharm/PCS, ± S.E.M. where given",9.67 ± 0.42
same,Schild plot slope,"[1]; Schild regression, Pharm/PCS, ± S.E.M. where given",−0.76
same,Maximal BK-induced response in absolute force units ± S.E.M.,"[1]; antagonist 1 nM, vehicle for Compound 3 1.52 ± 0.20",1.75 ± 0.32 grams-weight
same,Maximal BK-induced response in absolute force units ± S.E.M.,"[1]; antagonist 10 nM, vehicle: Icatibant 1.90, Compound 1 […], Compound 2 2.25, Compound 3 1.52",2.29 ± 0.24 grams-weight
same,Maximal BK-induced response in absolute force units ± S.E.M.,"[1]; antagonist 100 nM, vehicle: Icatibant 1.90, Compound 1 […], Compound 2 2.25, Compound 3 1.52",2.42 ± 0.36 grams-weight
same,Maximal BK-induced response in absolute force units ± S.E.M.,"[1]; antagonist 1 μM, vehicle: Icatibant 1.90, Compound 1 […], Compound 2 2.25, Compound 3 1.52",1.25 ± 0.14 grams-weight
same,pA2 value converted into nM,[1]; potency from pA2,0.21 nM
same,effect on U-46619-induced contraction,prostanoid TP receptor,Lack of antagonist effect; also recorded: no functional antagonism was observed
same,inhibition at 10 µM,[2],1%
same,inhibition at 10 µM,[3],-6%
same,inhibition at 10 µM,Galanin GAL2,6.2%
same,inhibition at 10 µM,[4],-8%
same,inhibition at 10 µM,[5],5%
same,inhibition at 10 µM,Histamine H2,-26.5%
same,inhibition at 10 µM,[6],13.4%
same,inhibition at 10 µM,Neuropeptide Y2,-19.1%
same,inhibition at 10 µM,[7],25%
same,inhibition at 10 µM,Prostanoid EP4,3%
same,inhibition at 10 µM,Lck kinase,9.5%
same,"Caco-2 AB, apparent permeation rate apical to basolateral direction",Caco-2 cell monolayer,> 10^-5 cm/s
same,inhibition at 10 µM,"Adenosine A3; CHO, read-out: % inhibition of reference agonist response @ 10 µM (antagonist effect), IB-MECA (10 nM)",8.5%
same,% of reference agonist response @ 10 µM (agonist effect),Adenosine A3; reference IB-MECA (100 nM),10.5%
same,inhibition at 10 µM,Adrenergic β2,3%
same,inhibition at 10 µM,Muscarinic M1,3.7%
